Source: patent US5449612A, “Process for identifying candida by means of chromogenic substances” (Serbio, priority 1990, dated 1995)
Non-standard residues stand in square brackets, D forms with d. Residues, ends and D or L forms follow the SMILES beside them. *: point of attachment. pNA = O=[N+]([O-])c1ccc(N*)cc1; Cbz = O=C(OCc1ccccc1)*

Experiments:
Candida albicans = test: Tests on substrates against Candida albicans, colour reading on buffered gelose; format: cell-based; conditions: Table I; for Reading at 24 h: medium pH 6.0, YNB, glucose, agar, gentamycin, coloration or fluorescence
Candida tropicalis = test: Tests on substrates against Candida tropicalis, colour reading on buffered gelose; format: cell-based; conditions: Table II; medium pH 6.0, YNB, glucose, agar, gentamycin

| Compound | Reading at 24 h (Candida albicans) | Reading at 24 h (Candida tropicalis) | Specificity: nonspecific for the strains of Candida albicans (Candida albicans) | also measured |
| --- | --- | --- | --- | --- |
| CC(=O)O.N=C(N)NCCC[C@H](NC(=O)OCc1ccccc1)C(=O)Nc1ccc([N+](=O)[O-])cc1 [Cbo-L-Arg-pNA.AcOH] | - |  |  |  |
| O=C(Nc1ccc([N+](=O)[O-])cc1)[C@@H]1CCCN1C(=O)OCc1ccccc1 [Cbo-L-Pro-pNA] | - |  |  |  |
| N=C(N)NCCC[C@H](NC(=O)[C@H]1CCCN1C(=O)[C@H]1CCCN1)C(=O)Nc1ccc([N+](=O)[O-])cc1 [H-D-Pro-D-Pro-L-Arg-pNA.2AcOH] (H-[dP]-[dP]-Arg-pNA) |  | - |  |  |
| N=C(N)NCCC[C@H](NC(=O)[C@@H]1CCCN1C(=O)[C@H]1CCCN1)C(=O)Nc1ccc([N+](=O)[O-])cc1 [H-D-Pro-L-Pro-L-Arg-pNA.2AcOH] (H-[dP]-Pro-Arg-pNA) |  | ++++ |  |  |
| CC(=O)O.O=C(Nc1ccc([N+](=O)[O-])cc1)[C@H]1NCCC1O (stereo partly drawn) [H-L-3Hyp-pNA.AcOH] | +++ |  | (a) |  |
| CC(=O)O.O=C(Nc1ccc([N+](=O)[O-])cc1)[C@@H]1CC(O)CN1 (stereo partly drawn) [H-L-4Hyp-pNA.AcOH] | +++ |  | (a) |  |
| C[C@H](N)C(=O)N[C@@H](C)C(=O)N1CCC[C@H]1C(=O)Nc1ccc([N+](=O)[O-])cc1 [H-L-Ala-L-Ala-L-Pro-pNA.AcOH] (H-Ala-Ala-Pro-pNA) |  |  | (a) | Reading at 48 h (Candida albicans; same medium, reading at 48 h): + |
| C[C@H](N)C(=O)N1CCC[C@H]1C(=O)Nc1ccc([N+](=O)[O-])cc1 [H-L-Ala-L-Pro-pNA.AcOH] (H-Ala-Pro-pNA) | ++ |  | (a) |  |
| CC(=O)O.CC(=O)O.N=C(N)NCCC[C@H](N)C(=O)Nc1ccc([N+](=O)[O-])cc1 [H-L-Arg-pNA.2AcOH] | +++ |  | (a) |  |
| CC(=O)O.O=C(Nc1ccc2ccccc2c1)[C@@H]1C[C@@H](O)CN1 [H-L-Hyp-NA.AcOH, reference compound] | ++ |  | (a) |  |
| CC(C)C[C@H](N)C(=O)NCC(=O)N[C@@H](CCCNC(=N)N)C(=O)Nc1ccc([N+](=O)[O-])cc1 [H-L-Leu-Gly-L-Arg-pNA.2AcOH] (H-Leu-Gly-Arg-pNA) |  | ++++ |  |  |
| CC(=O)O.COc1cc(NC(=O)[C@@H]2CCCN2)cc2ccccc12 [H-L-Pro-(4-MeO)NA.AcOH, reference compound] | - |  |  |  |
| CC(=O)O.O=C(Nc1ccc2cc(Br)ccc2c1)[C@@H]1CCCN1 [H-L-Pro-(6-Br)NA.AcOH, reference compound] | + |  | (a) |  |
| N=C(N)NCCC[C@H](NC(=O)[C@@H]1CCCN1)C(=O)Nc1ccc([N+](=O)[O-])cc1 [H-L-Pro-L-Arg-pNA.2AcOH] (H-Pro-Arg-pNA) |  | ++ |  |  |
| CC(=O)O.O=C(Nc1ccc2ccccc2c1)[C@@H]1CCCN1 [H-L-Pro-NA.AcOH, reference compound] | ++ |  | (a) |  |
| CC(=O)O.COCCOCCOC(=O)NC(CCCN=C(N)N)C(=O)Nc1ccc([N+](=O)[O-])cc1 [MeO(CH2 CH2 O)2 CO-L-Arg-pNA.AcOH] | - |  |  |  |
| O=C(NCC(=O)N1CCC[C@H]1C(=O)Nc1ccc([N+](=O)[O-])cc1)OCc1ccccc1 [Z-Gly-L-Pro-pNA] (Cbz-Gly-Pro-pNA) | - |  |  |  |
| CC(=O)O.NCCCC[C@H](NC(=O)OCc1ccccc1)C(=O)Nc1ccc([N+](=O)[O-])cc1 [Z-L-Lys-pNA.AcOH] | - |  |  |  |
| H-D-Pro-L-Hyp-L-Arg-pNA.2AcOH |  | +++ |  |  |
| H-L-Hyp-L-Arg-pNA.2AcOH |  | ++ |  |  |
| H-L-Hyp-L-Hyp-L-Arg-pNA.2AcOH |  | +++ |  |  |
| H-L-Hyp-L-Lys-pNA.2AcOH |  | ++ |  |  |
| H-L-Hyp-L-Pro-L-Arg-pNA.2AcOH |  | +++ |  |  |
| H-L-ONC-L-Pro-L-Arg-pNA.AcOH |  | +++ |  |  |
| Z-L-Ala-L-Pro-pNA | - |  |  |  |
